The record followed here is patent publication US20230286973A1, “PROTEIN SECRETION INHIBITORS” (KEZAR LIFE SCIENCES, priority 2020, published 2023).

Broadly, the EC50 is the concentration giving half of the maximal effect.

Series [1] deals with PD1-ss+10aa/Gaussia Luciferase. Put plainly: Dox-Induced PD1-ss-Gluc Assay. The series is classed as cell-based. The note with it: 24 hr Dox induction, 293FRT/TO cells, read-out: 24 hr Dox Inducible PD1ssGluc 293FRT/TO: Mean IC50. The method, boiled down:
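Flp-In 293 T-REx, stable line; Tet-regulated PD1-ss+10aa fused to Gaussia luciferase; plated day prior; cpd + doxycycline in DMSO/media; 37 °C, 5% CO2.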

Series [2] has as its system TNFα-FL/Gaussia Luciferase. Put plainly: Dox Induced TNFα-FL-Gluc Assay. The series is classed as cell-based. The note with it: for IC50: 24 hr Dox induction, 293FRT/TO cells, read-out: 24 hr Dox Inducible TNFaFLGluc 293FRT/TO: Mean IC50; for 24 hr Dox Inducible TNFaFLGluc 293FRT/TO: TNF/PD1: ratio of TNFaFLGluc IC50 to PD1ssGluc IC50. The method, boiled down:
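Cell line: stable Flp-In 293 T-REx, TNFα-FL(1-233)-Gaussia luciferase fusion, T-REx-inducible. Plated day -1; compounds in DMSO/media + doxycycline, 37 °C, 5% CO2. Undefined stereocentres = mixture tested.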

In series [3] the test system is HER3-ss+4aa/Gaussia Luciferase. Put plainly: Dox-Induced Her3-ss-Gluc Assay. In kind it is cell-based. As to conditions: 24 hr Dox induction, 293FRT/TO cells, read-out: 24 hr Dox Inducible Her3(ss + 4)Gluc 293FRT/TO: Mean IC50. The method, boiled down:
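Flp-In 293 T-REx cells, stable HER3-ss+4aa/Gaussia luciferase insert, hygromycin/blasticidin selected; plated day before; compound in DMSO/media + doxycycline; 37° C., 5% CO2.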

In series [4] the test system is IL-2-FL/Gaussia Luciferase. Nature of the series: Dox Induced IL2-FL-Gluc Assay. The series is classed as cell-based. The note with it: for IC50: 24 hr Dox induction, 293FRT/TO cells, read-out: 24 hr Dox Inducible IL2FLGluc 293FRT/TO: Mean IC50; for 24 hr Dox Inducible IL2FLGluc 293FRT/TO: IL2/PD1: ratio of IL2FLGluc IC50 to PD1ssGluc IC50. Put shortly: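 Stable Flp-In 293 T-REx line, Tet-regulated IL-2 (aa 1-153)–Gaussia luciferase fusion; hygromycin/blasticidin selected. Plated day -1; compound + doxycycline added next day; 37° C, 5% CO2.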

The test system of series [5] is multiple myeloma cell line NCI-H929. Nature of the series: H929 Cell Viability Assay. In kind it is cell-based, human. The note with it: Homo sapiens, NCI-H929, 48 h, NCI-H929 cells, Celltiter-Glo. Put shortly:
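Cells in RPMI 1640/10% FBS; compound dilutions in DMSO/media; 48 h, 37° C, 5% CO2; CellTiter-Glo luciferase readout for viability.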
On the technique in general: In ATP-based viability assays light output follows the ATP content of the culture.

Series [6] deals with multiple myeloma cell line U266B1. Put plainly: U266 Cell Viability Assay. In kind it is cell-based, human. The note with it: Homo sapiens, U-266, 48 h, U266B1 cells, Celltiter-Glo. The method, boiled down: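 Luminescent ATP read-out (CellTiter-Glo) after 48 h compound exposure at 37° C., 5% CO2; cells maintained in RPMI 1640/10% FBS/2 mM glutamine/pen-strep, compounds diluted in DMSO/media.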

The nature of series [7]: Liver Microsome Stability Assay (rat). As to conditions: rat liver microsomes, with NADPH, 1.0 uM compound. On the technique in general: Microsomes from liver hold many membrane-bound enzymes, among them those of drug oxidation.
Description: (§1) Stability of a compound was assessed in the presence of liver microsomes from various sources—mouse, rat, monkey and human liver microsomes. 1.0 uM compound, 0.4% DMSO in 0.1 M Potassium Phosphate with 1.0 mg/mL liver microsomes, were incubated at 37° C. with or without 1 mM NADPH. The samples were quenched at 0, and 30 minutes.
A short description of series [8]: Liver Microsome Stability Assay (mouse). The note with it: mouse liver microsomes, with NADPH, 1.0 uM compound.
Description: as §1
Series [9] in a line: Liver Microsome Stability Assay (human). The note with it: human liver microsomes, with NADPH, 1.0 uM compound.
Description: as §1
Series [10] can be described thus: Liver Microsome Stability Assay (monkey). The note with it: monkey liver microsomes, with NADPH, 1.0 uM compound.
Description: as §1
[11] abbreviates: '<=>' given where both are I.A.

Molecules are shown by their SMILES. Where two headings read alike, the source gives them in different places.

`O=C(Nc1nc([C@H]2CCCN2c2ccccc2)cs1)c1cccn1CC1COC1` [Compound C84, (R)-1-(oxetan-3-ylmethyl)-N-(4-(1-phenylpyrrolidin-2-yl)thiazol-2-yl)-1H-pyrrole-2-carboxamide]: the IC50 in series [1] (mean) was 4.25 µM; in [2] (mean), greater than 25 µM; in [3] (mean), 6.59 µM; in [4] (mean), greater than 25 µM. Besides, the “24 hr Dox Inducible TNFaFLGluc 293FRT/TO: TNF/PD1” value in [2] (setting [11]) was greater than 5.88. In addition, in [4] (setting [11]), the “24 hr Dox Inducible IL2FLGluc 293FRT/TO: IL2/PD1” value was greater than 5.9. Further, the EC50 in series [5] and in series [6] was greater than 25 µM in each case. In series [7], the “Liver Microsome Stability (Multiple Species): Rat - % Remaining after 30 min w/NADPH” value is 4.2%. Besides, the “Liver Microsome Stability (Multiple Species): Mouse - % Remaining after 30 min w/NADPH” value in [8] came to 22.3%. Besides, in series [9], the “Liver Microsome Stability (Multiple Species): Human - % Remaining after 30 min w/NADPH” value came to 31.5%. Besides, the “Liver Microsome Stability (Multiple Species): Monkey - % Remaining after 30 min w/NADPH” value in series [10] came to 0.28%.

`CC(C)c1cc(/C=C/c2csc(NC(=O)c3cccn3Cc3ccnc(F)c3)n2)nn1C` [Compound B96, (E)-1-((2-fluoropyridin-4-yl)methyl)-N-(4-(2-(5-isopropyl-1-methyl-1H-pyrazol-3-yl)vinyl)thiazol-2-yl)-1H-pyrrole-2-carboxamide]: the IC50 was 0.304 µM in [1], greater than 25 µM in [2], 3.3 µM in series [3] and 7.59 µM in series [4]. Besides, in series [2], the “24 hr Dox Inducible TNFaFLGluc 293FRT/TO: TNF/PD1” value was greater than 82.3. Besides, the “24 hr Dox Inducible IL2FLGluc 293FRT/TO: IL2/PD1” value in [4] turned out to be 25. Further, the EC50 is 20.7 µM in [5] and greater than 25 µM in [6]. Moreover, in [7], the “Liver Microsome Stability (Multiple Species): Rat - % Remaining after 30 min w/NADPH” value is on record as 13.6%. The “Liver Microsome Stability (Multiple Species): Mouse - % Remaining after 30 min w/NADPH” value in series [8] is on record as 8.33%. For the same compound, the “Liver Microsome Stability (Multiple Species): Human - % Remaining after 30 min w/NADPH” value in [9] worked out at 0.79%. Also, the “Liver Microsome Stability (Multiple Species): Monkey - % Remaining after 30 min w/NADPH” value in series [10] was 0.19%.

With `CS(=O)(=O)N1CCC(Oc2ccc(N3CCC[C@@H]3c3csc(NC(=O)c4cccn4Cc4ccnc(F)c4)n3)cc2)CC1` [Compound A128, (R)-1-((2-fluoropyridin-4-yl)methyl)-N-(4-(1-(4-((1-(methylsulfonyl)piperidin-4-yl)oxy)phenyl)pyrrolidin-2-yl)thiazol-2-yl)-1H-pyrrole-2-carboxamide], the IC50 stood at 0.0379 µM in [1], 0.495 µM in series [2], 0.0681 µM in [3] and 0.0596 µM in [4]. The “24 hr Dox Inducible TNFaFLGluc 293FRT/TO: TNF/PD1” value in series [2] is recorded as 13.1. Besides, in series [4], the “24 hr Dox Inducible IL2FLGluc 293FRT/TO: IL2/PD1” value was determined as 1.6. For the same compound, the EC50 was 0.847 µM in [5] and greater than 25 µM in [6]. Also, the “Liver Microsome Stability (Multiple Species): Rat - % Remaining after 30 min w/NADPH” value in series [7] amounted to 31.3%. Besides, the “Liver Microsome Stability (Multiple Species): Mouse - % Remaining after 30 min w/NADPH” value in series [8] worked out at 25.5%. In series [9], the “Liver Microsome Stability (Multiple Species): Human - % Remaining after 30 min w/NADPH” value stood at 28%. Moreover, the “Liver Microsome Stability (Multiple Species): Monkey - % Remaining after 30 min w/NADPH” value in series [10] worked out at 4.62%.

Turning to `COc1ccc(O[C@@H]2CCC[C@H](c3csc(NC(=O)c4cccn4Cc4ccncc4)n3)C2)nc1` [Compound E39, N-(4-((1S,3R)-3-((5-methoxypyridin-2-yl)oxy)cyclohexyl)thiazol-2-yl)-1-(pyridin-4-ylmethyl)-1H-pyrrole-2-carboxamide], the IC50 in series [1] (mean) was 0.159 µM; in series [2] (mean) it was 1.65 µM; in series [3] (mean), 0.344 µM; in series [4] (mean), 0.449 µM. Besides, in series [2] (setting [11]), the “24 hr Dox Inducible TNFaFLGluc 293FRT/TO: TNF/PD1” value was 10.3. Also, the “24 hr Dox Inducible IL2FLGluc 293FRT/TO: IL2/PD1” value in series [4] (setting [11]) is reported as 2.8. Also, the EC50 worked out at 8.43 µM in series [5] and 13.9 µM in series [6]. Further, the “Liver Microsome Stability (Multiple Species): Rat - % Remaining after 30 min w/NADPH” value in series [7] is listed as 1.17%. For the same compound, the “Liver Microsome Stability (Multiple Species): Mouse - % Remaining after 30 min w/NADPH” value in series [8] is listed as 0.23%. Also, in [9], the “Liver Microsome Stability (Multiple Species): Human - % Remaining after 30 min w/NADPH” value is 0.34%. Further, the “Liver Microsome Stability (Multiple Species): Monkey - % Remaining after 30 min w/NADPH” value in [10] is 0.19%.

With `COc1ccc(O[C@@H]2CC[C@H](c3csc(NC(=O)c4cccn4Cc4ccncc4)n3)C2)nc1` [Compound E42, N-(4-((1S,3R)-3-((5-methoxypyridin-2-yl)oxy)cyclopentyl)thiazol-2-yl)-1-(pyridin-4-ylmethyl)-1H-pyrrole-2-carboxamide], the IC50 in [1] (mean) was 0.473 µM; in series [2] (mean) it was 8.11 µM; in [3] (mean), 1.12 µM; in [4] (mean), 2.59 µM. In addition, in series [2] (setting [11]), the “24 hr Dox Inducible TNFaFLGluc 293FRT/TO: TNF/PD1” value turned out to be 17.2. Further, in [4] (setting [11]), the “24 hr Dox Inducible IL2FLGluc 293FRT/TO: IL2/PD1” value worked out at 5.5. Besides, the EC50 was 17.3 µM in series [5] and greater than 25 µM in [6]. In [7], the “Liver Microsome Stability (Multiple Species): Rat - % Remaining after 30 min w/NADPH” value came out at 0.38%. For the same compound, the “Liver Microsome Stability (Multiple Species): Mouse - % Remaining after 30 min w/NADPH” value in series [8] was found to be 0.18%. Besides, the “Liver Microsome Stability (Multiple Species): Human - % Remaining after 30 min w/NADPH” value in series [9] is given as 0.09%. Moreover, the “Liver Microsome Stability (Multiple Species): Monkey - % Remaining after 30 min w/NADPH” value in series [10] stood at 0.26%.

With `C/C(=C\c1ccc(OC(F)(F)F)cn1)c1csc(NC(=O)c2cccn2Cc2ccncc2)n1` [Compound E2, (E)-1-(pyridin-4-ylmethyl)-N-(4-(1-(5-(trifluoromethoxy)pyridin-2-yl)prop-1-en-2-yl)thiazol-2-yl)-1H-pyrrole-2-carboxamide], the IC50 in series [1] (mean) came out at 0.0234 µM; in series [2] (mean), 4.85 µM; in [3] (mean), 0.409 µM; in series [4] (mean), 0.53 µM. For the same compound, the “24 hr Dox Inducible TNFaFLGluc 293FRT/TO: TNF/PD1” value in series [2] (setting [11]) is 208. The “24 hr Dox Inducible IL2FLGluc 293FRT/TO: IL2/PD1” value in series [4] (setting [11]) was 23. Also, the EC50 in [5] was 7.34 µM; in [6], greater than 25 µM. Besides, the “Liver Microsome Stability (Multiple Species): Rat - % Remaining after 30 min w/NADPH” value in series [7] was found to be 35.4%. In addition, the “Liver Microsome Stability (Multiple Species): Mouse - % Remaining after 30 min w/NADPH” value in [8] is on record as 28.6%. The “Liver Microsome Stability (Multiple Species): Human - % Remaining after 30 min w/NADPH” value in series [9] is 17.5%. Moreover, the “Liver Microsome Stability (Multiple Species): Monkey - % Remaining after 30 min w/NADPH” value in series [10] is listed as 13.5%.

`N#CCCCCn1cccc1C(=O)Nc1nc([C@H]2CCCN2c2ccccc2)cs1` [Compound C1, (R)-1-(4-cyanobutyl)-N-(4-(1-phenylpyrrolidin-2-yl)thiazol-2-yl)-1H-pyrrole-2-carboxamide]: the IC50 in series [1] (mean) was determined as 0.455 µM; in [2] (mean), 10 µM; in series [3] (mean), 1.33 µM; in [4] (mean) it was 1.26 µM. Besides, the “24 hr Dox Inducible TNFaFLGluc 293FRT/TO: TNF/PD1” value in [2] (setting [11]) was 22.1. Besides, in [4] (setting [11]), the “24 hr Dox Inducible IL2FLGluc 293FRT/TO: IL2/PD1” value amounted to 2.8. Moreover, the figures for the EC50 in [5] and in series [6] were 24.1 µM and greater than 25 µM, respectively. In addition, in [7], the “Liver Microsome Stability (Multiple Species): Rat - % Remaining after 30 min w/NADPH” value turned out to be 7.64%. Moreover, in [8], the “Liver Microsome Stability (Multiple Species): Mouse - % Remaining after 30 min w/NADPH” value was 23.2%. Besides, the “Liver Microsome Stability (Multiple Species): Human - % Remaining after 30 min w/NADPH” value in series [9] is on record as 29.3%. For the same compound, the “Liver Microsome Stability (Multiple Species): Monkey - % Remaining after 30 min w/NADPH” value in series [10] worked out at 0.35%.
